These results are taken from PubChem BioAssay AID720622 (The Scripps Research Institute Molecular Screening Center, 2013).

The first assay in a line: whole-trypanosome antiproliferative activity – absorbance, counter-screen for T. brucei MetRS inhibitor project, late-stage follow-up (AID 720622). The note with it: T. brucei bloodstream form 427 growth, AlamarBlue fluorescence, 48 h; run 1. On the technique in general: The purpose of a counterscreen is to sort out artefacts and off-target activity.
In turn, `O=C(NCc1nc2ccccc2[nH]1)C1=C[C@H](c2ccc3c(c2)OCO3)C[C@H](OCCCCO)O1` showed a half-maximal inhibitory concentration (IC50) of over 10 µM.

The molecule `O=C(C[C@H]1C(=O)N(Cc2ccccc2)C[C@@H]1c1ccc(Br)cc1)Nc1ccc(Br)cc1` showed a concentration for half-maximal inhibition (IC50) of 4.03 µM.

Molecule `O=C(CC=NOCc1ccc([N+](=O)[O-])cc1)Nc1ccc(Br)cc1` had an IC50 of over 10 µM.

Turning to `CC(CC(=O)Nc1cccc(Br)c1)=NNC(=O)c1ccc(O)cc1O`, the half-maximal inhibitory concentration (IC50) is over 10 µM.

As to `CN(Cc1cc(Cl)cc(Cl)c1)[C@H]1C[C@H]2c3[nH]c4ccccc4c3CCN2C(=O)[C@H]1CO`, the IC50 turned out to be 1.97 µM.

With `O=C(NCc1nc2ccccc2[nH]1)C1=C[C@@H](c2ccc(Br)cc2)C[C@@H](OCCCCO)O1`, the IC50 was determined as 6.6 µM.

As to `CC(=O)c1c[nH]c(C(=O)NCc2cccc(C(F)(F)F)c2)c1`, the IC50 is over 10 µM.

In turn, `Clc1ccc(-c2nnc(SCc3nc4ccccc4[nH]3)o2)c(Cl)c1` gave an IC50 of over 10 µM.

For `O=C(NCc1nc2ccccc2[nH]1)C1=C[C@H](c2ccc(Br)cc2)C[C@H](OCc2ccc(CO)cc2)O1`, the 50% inhibitory concentration (IC50) was determined as 9.73 µM.

`O=C(NCc1nc2ccccc2[nH]1)C1=C[C@@H](c2ccc3c(c2)OCO3)C[C@@H](OCCCCO)O1` returned an IC50 of over 10 µM.

`O=C(Cn1cc(C(=O)C(=O)N2CCOCC2)c2ccccc21)Nc1cccc(C(F)(F)F)c1` came in with a concentration for half-maximal inhibition (IC50) of 3.53 µM.

Consider `Clc1ccc(OCCSCc2nc3ccccc3[nH]2)cc1`, for which the IC50 was over 10 µM.

Consider `COc1ccc(CNC(=O)CSc2nnc3c(n2)[nH]c2ccc(F)cc23)cc1`, for which the 50% inhibitory concentration (IC50) is over 10 µM.

Turning to `O=C(CC(=O)Nc1cccc(Cl)c1)NN=Cc1ccccc1`, the IC50 is over 10 µM.

`O=C(NCc1nc2ccccc2[nH]1)C1=C[C@H](C2CC2)C[C@H](OCc2ccc(CO)cc2)O1` returned an IC50 of over 10 µM.

`Brc1cnc2nc(SCc3nc4ccccc4[nH]3)[nH]c2c1` registered an IC50 of over 10 µM.

On to `COc1ccccc1-n1c(SCC(=O)Nc2ccc(Cl)cc2)nc(O)c(Cc2ccccc2)c1=O`, for which the IC50 is over 10 µM.

With `O=C(CC=NOCc1ccc([N+](=O)[O-])cc1)Nc1ccc(Cl)cc1`, the IC50 was over 10 µM.

`O=C(NCc1nc2ccccc2[nH]1)C1=C[C@H](c2ccc(Br)cc2)C[C@H](OCCCCO)O1` returned an IC50 of over 10 µM.

`O=C(CN1CCSC1=NCc1ccccc1)c1ccc(Cl)c(Cl)c1` displayed an IC50 of over 10 µM.

In the case of `COc1cccc(NC(=O)CSc2nnc3c(n2)[nH]c2ccc(C)cc23)c1`, the IC50 is over 10 µM.

As for `CCCCCCCCCC1NC(C(=O)O)Cc2c1[nH]c1ccccc21` (configuration not stated), the IC50 was over 10 µM.

On to `O=C(Cn1cnc2ccccc21)Nc1cccc([N+](=O)[O-])c1`, for which the IC50 was over 10 µM.

With `O=C1CC(N(CCc2ccccc2)C(=S)Nc2ccccc2)C(=O)N1c1ccc(Br)cc1` (configuration not stated), the IC50 was determined as 1.95 µM.

In turn, `O=C(NCCc1nc2ccccc2[nH]1)c1ccc(Cl)c([N+](=O)[O-])c1` displayed a half-maximal inhibitory concentration (IC50) of 4.97 µM.

For `CN(CC(=O)Nc1ccc(Cl)cc1)C(=O)c1ccc(-n2cncn2)c([N+](=O)[O-])c1`, the IC50 was over 10 µM.

`CC(=O)c1ccc(N2CCN(C(=O)CCCn3c(=O)[nH]c4ccc(Br)cc4c3=O)CC2)cc1` yielded a concentration for half-maximal inhibition (IC50) of over 10 µM.

`O=C(NCc1nc2ccccc2[nH]1)C1=C[C@H](c2csc3ccccc23)C[C@H](OCCCCO)O1` showed a 50% inhibitory concentration (IC50) of 3.96 µM.

`CC(C)(C)[C@H]1C=C(C(=O)NCc2nc3ccccc3[nH]2)O[C@@H](OCc2ccc(CO)cc2)C1` yielded an IC50 of over 10 µM.

In the case of `O=C(NNC(=O)c1cc(-c2ccc(Cl)c(Cl)c2)nc2ccccc12)Nc1ccccc1`, the IC50 was 5.24 µM.

Take `O=C(N/C(=C\c1cccnc1)c1nc2ccccc2[nH]1)c1cccc(Br)c1`: the IC50 is over 10 µM.

As for `O=C(NCc1nc2ccccc2[nH]1)C1=C[C@@H](c2csc3ccccc23)C[C@@H](OCCCCO)O1`, the IC50 is over 10 µM.

The molecule `O=C(NNC(=O)c1ccc(-n2cncn2)c([N+](=O)[O-])c1)c1ccc(Cl)cc1` showed an IC50 of over 10 µM.

`CC(C)(C)[C@@H]1C=C(C(=O)NCc2nc3ccccc3[nH]2)O[C@H](OCc2ccc(CO)cc2)C1` registered an IC50 of over 10 µM.

Regarding `CCOC(=O)N1CCC(Nc2c(Nc3ccc(F)cc3)c(=O)c2=O)CC1`, the IC50 came out at 8.72 µM.

With `O=C(NCc1nc2ccccc2[nH]1)C1=C[C@@H](C2CC2)C[C@@H](OCc2ccc(CO)cc2)O1`, the IC50 was over 10 µM.

Molecule `O=C(Nc1ccc(F)c(Cl)c1)C1CC(=O)n2c(nc3ccccc32)N1` (configuration not stated) returned an IC50 of over 10 µM.

Turning to `CC(C)OCCCN1CC(=O)N2C(c3cccc([N+](=O)[O-])c3)c3[nH]c4ccccc4c3C[C@H]2C1=O` (some centres not stated), the IC50 is over 10 µM.

With `COc1ccc(OCC(O)CNC(=O)Nc2ccc(Cl)cc2)cc1` (configuration not stated), the IC50 was over 10 µM.

For the molecule `Oc1c(Cl)cc(Cl)cc1CNc1nc2ccccc2[nH]1`, the IC50 is over 10 µM.

`O=C(CCC(=O)Nc1cccc([N+](=O)[O-])c1)NN=Cc1cccs1` displayed an IC50 of over 10 µM.

The molecule `O=C1[C@@H]2Cc3c([nH]c4ccccc34)C(c3cccc([N+](=O)[O-])c3)N2C(=O)CN1CCCO` (some centres not stated) returned an IC50 of over 10 µM.

In turn, `O=C(NCc1nc2ccccc2[nH]1)C1=C[C@H](c2ccccc2)C[C@H](OCc2ccc(CO)cc2)O1` showed an IC50 of over 10 µM.

`COc1ccc2[nH]c3nc(SCC(=O)Nc4ccc5c(c4)OCO5)nnc3c2c1` came in with a half-inhibitory concentration (IC50) of over 10 µM.

Molecule `O=C1CC(SCc2nc3ccccc3[nH]2)C(=O)N1c1cccc(Cl)c1` (configuration not stated) displayed an IC50 of over 10 µM.

In the case of `Cc1[nH]c2ccc(Br)cc2c(=O)c1CN1CCCCCC1`, the concentration for half-maximal inhibition (IC50) was over 10 µM.

As to `O=C(NCc1nc2ccccc2[nH]1)C1=C[C@@H](c2ccc(Br)cc2)C[C@@H](OCc2ccc(CO)cc2)O1`, the half-maximal inhibitory concentration (IC50) came out at 4.38 µM.

The molecule `Cc1ccc(NC(=O)CN(C)C(=O)CCSc2ccc(F)cc2)cc1` had an IC50 of over 10 µM.

In the case of `CCO[C@H]1OC(C(=O)NCc2nc3ccccc3[nH]2)=C[C@@H](c2ccc(Br)cc2)[C@@H]1CCCO`, the IC50 is over 10 µM.

Consider `COc1ccccc1NS(=O)(=O)c1cccc(NC(=O)Nc2ccccc2)c1`, for which the IC50 was 6.06 µM.

In turn, `CN1CC(=O)N2C(c3cccc([N+](=O)[O-])c3)c3[nH]c4ccccc4c3C[C@H]2C1=O` (some centres not stated) gave an IC50 of over 10 µM.

The molecule `O=C(NCc1nc2ccccc2[nH]1)C1=C[C@@H](c2ccccc2)C[C@@H](OCc2ccc(CO)cc2)O1` showed an IC50 of over 10 µM.

In turn, `CCO[C@@H]1OC(C(=O)NCc2nc3ccccc3[nH]2)=C[C@H](c2ccc(Br)cc2)[C@H]1CCCO` gave a half-inhibitory concentration (IC50) of over 10 µM.

Turning to `C[C@H](O)[C@@H]1C(=O)N2CCc3c([nH]c4ccccc34)[C@@H]2C[C@@H]1N(C)Cc1ccc2c(c1)OCO2`, the IC50 was over 10 µM.

The assay is the same for the next values; noted with them: T. brucei bloodstream form 427 growth, AlamarBlue fluorescence, 48 h; run 2.
`CN(Cc1cc(Cl)cc(Cl)c1)[C@H]1C[C@H]2c3[nH]c4ccccc4c3CCN2C(=O)[C@H]1CO` returned an IC50 of 2.62 µM.

As to `O=C(Cn1cc(C(=O)C(=O)N2CCOCC2)c2ccccc21)Nc1cccc(C(F)(F)F)c1`, the IC50 came out at 1.8 µM.

`O=C1CC(N(CCc2ccccc2)C(=S)Nc2ccccc2)C(=O)N1c1ccc(Br)cc1` (configuration not stated): the half-maximal inhibitory concentration (IC50) came to 2.74 µM.

As a reminder, the IC50 is the point on the concentration scale where inhibition reaches its midpoint.
